# Results as given in US12054483B2, “Small molecule inhibitors of DYRK/CLK and uses thereof” (Arizona Board of Regents on Behalf of the University of …, priority 2018, dated 2024).
# Target: DYRK1A (Homo sapiens, UniProt Q13627)
# Assay: Affinity testing of compounds with DYRK1A (KD)
# Format: binding
# Details: DYRK1A affinity key classes
row,SMILES,Kd [µM]
1,"Cc1cc(-c2ccc3ncc(-c4ccc(CN5CCN[C@H](C)C5)cc4)n3n2)ccn1 [Compound 94, (R)-3-(4-((3-methylpiperazin-1-yl)methyl)phenyl)-6-(2-methylpyridin-4-yl)imidazo[1,2-b]pyridazine]",0.0005 to 0.1
2,"Cc1cc(-c2ccc3ncc(-c4ccc(CN5CCOCC5)cc4)n3n2)ccn1 [Compound 90, 4-(4-(6-(2-methylpyridin-4-yl)imidazo[1,2-b]pyridazin-3-yl)benzyl)morpholine]",0.101 to 0.5
3,"N#Cc1ccnc(-n2cnc3ccc(-c4ccncc4)c(F)c32)c1 [Compound 11, 2-(7-fluoro-6-(pyridin-4-yl)-1H-benzo[d]imidazol-1-yl)isonicotinonitrile]",0.101 to 0.5
4,"CC(=O)N1CCN(c2cnc3ccc(-c4ccncc4)nn23)CC1 [Compound 85, 1-(4-(6-(pyridin-4-yl)imidazo[1,2-b]pyridazin-3-yl)piperazin-1-yl)ethan-1-one]",0.501 to 10
5,"O=C(O)c1ccc(-n2cnc3c(F)cc(-c4ccncc4)cc32)cc1 [Compound 17, 4-(4-fluoro-6-(pyridin-4-yl)-1H-benzo[d]imidazol-1-yl)benzoic acid]",0.101 to 0.5
6,"Cc1cc(-c2ccc3nc(C)n(-c4ccc5[nH]cnc5c4)c3n2)cc(C)n1 [Compound 51, 3-(1H-benzo[d]imidazol-5-yl)-5-(2,6-dimethylpyridin-4-yl)-2-methyl-3H-imidazo[4,5-b]pyridine]",0.101 to 0.5
7,"Cc1nc2ccc(-c3cc[n+]([O-])cc3)nc2n1-c1ccc2c(c1)OCO2 [Compound 60, 4-(3-(benzo[d][1,3]dioxol-5-yl)-2-methyl-3H-imidazo[4,5-b]pyridin-5-yl)-1λ^4-pyridin-2-ylium-1-olate]",0.501 to 10
8,"Nc1cc(-c2ccc3ncc(-c4ccc(CN5CCCCC5)cc4)n3n2)ccn1 [Compound 110, 4-(3-(4-(piperidin-1-ylmethyl)phenyl)imidazo[1,2-b]pyridazin-6-yl)pyridin-2-amine]",0.0005 to 0.1
9,"Cc1nc2ncc(-c3ccncc3)nc2n1-c1ccc2[nH]cnc2c1 [Compound 131, 1-(1H-benzo[d]imidazol-5-yl)-2-methyl-6-(pyridin-4-yl)-1H-imidazo[4,5-b]pyrazine]",0.101 to 0.5
10,"N#Cc1ccc(-n2cnc3ccc(-c4ccncc4)c(F)c32)nc1 [Compound 14, 6-(7-fluoro-6-(pyridin-4-yl)-1H-benzo[d]imidazol-1-yl)nicotinonitrile]",0.0005 to 0.1
11,"NC(=O)c1ccc(-n2cnc3ccc(-c4ccncc4)c(F)c32)nc1 [Compound 15, 6-(7-fluoro-6-(pyridin-4-yl)-1H-benzo[d]imidazol-1-yl)nicotinamide]",0.0005 to 0.1
12,"c1cc(-c2ccc3ncc(-c4ccc(CN5CCOCC5)cc4)n3n2)ccn1 [Compound 96, 4-(4-(6-(pyridin-4-yl)imidazo[1,2-b]pyridazin-3-yl)benzyl)morpholine]",0.101 to 0.5
13,"CC(=O)N1CCN(Cc2ccc(-c3cnc4ccc(-c5ccncc5)nn34)cc2)CC1 [Compound 104, 1-(4-(4-(6-(pyridin-4-yl)imidazo[1,2-b]pyridazin-3-yl)benzyl)piperazin-1-yl)ethan-1-one]",0.0005 to 0.1
14,"c1cc(-c2ccc3ncc(-c4ccc(CN5CCCCC5)cc4)n3n2)ccn1 [Compound 97, 3-(4-(piperidin-1-ylmethyl)phenyl)-6-(pyridin-4-yl)imidazo[1,2-b]pyridazine]",0.0005 to 0.1
15,"FC1CN(Cc2ccc(-c3cnc4ccc(-c5ccncc5)nn34)cc2)C1 [Compound 99, 3-(4-((3-fluoroazetidin-1-yl)methyl)phenyl)-6-(pyridin-4-yl)imidazo[1,2-b]pyridazine]",0.0005 to 0.1
16,"COc1cccc(-c2cnc3ccc(-c4ccncc4)nn23)c1 [Compound 75, 3-(3-methoxyphenyl)-6-(pyridin-4-yl)imidazo[1,2-b]pyridazine]",0.501 to 10
17,"O=C(O)c1ccc(-n2cnc3ccc(-c4ccncc4)nc32)cc1 [Compound 10, 4-(5-(pyridin-4-yl)-3H-imidazo[4,5-b]pyridin-3-yl)benzoic acid]",0.0005 to 0.1
18,"Cc1nc2cc(-c3ccnc(N)c3)cnc2[nH]1 [Compound 71, 4-(2-methyl-3H-imidazo[4,5-b]pyridin-6-yl)pyridin-2-amine]",0.0005 to 0.1
19,"O=C(O)c1ccc(-n2cnc3ccc(-c4ccncc4)c(F)c32)cc1 [Compound 6, 4-(7-fluoro-6-(pyridin-4-yl)-1H-benzo[d]imidazol-1-yl)benzoic acid]",0.101 to 0.5
20,"Cc1cc(-c2ccc3ncc(-c4ccc(N5CCCCC5)nc4)n3n2)ccn1 [Compound 81, 6-(2-methylpyridin-4-yl)-3-(6-(piperidin-1-yl)pyridin-3-yl)imidazo[1,2-b]pyridazine]",0.101 to 0.5
21,"Fc1cnccc1-c1ccc2ncc(-c3ccc(CN4CCCCC4)cc3)n2n1 [Compound 109, 6-(3-fluoropyridin-4-yl)-3-(4-(piperidin-1-ylmethyl)phenyl)imidazo[1,2-b]pyridazine]",0.501 to 10
22,"Fc1cc(-c2cnc3ccc(-c4ccncc4)nn23)ccc1CN1CCOCC1 [Compound 78, 4-(2-fluoro-4-(6-(pyridin-4-yl)imidazo[1,2-b]pyridazin-3-yl)benzyl)morpholine]",0.101 to 0.5
23,"O=c1cc(-c2ccn3ncc(-c4ccc(CN5CCOCC5)cc4)c3n2)cc[nH]1 [Compound 113, 4-(3-(4-(morpholinomethyl)phenyl)pyrazolo[1,5-a]pyrimidin-5-yl)pyridin-2(1H)-one]",0.501 to 10
24,"Cc1nc2ccc(-c3ccncc3)nc2n1-c1ccc(CN2CCCC(F)(F)C2)cc1 [Compound 65, 3-(4-((3,3-difluoropiperidin-1-yl)methyl)phenyl)-2-methyl-5-(pyridin-4-yl)-3H-imidazo[4,5-b]pyridine]",0.101 to 0.5
25,"Fc1cc(-c2ccncc2)cc2c1ncn2-c1ccc2c(c1)OCO2 [Compound 3, 1-(benzo[d][1,3]dioxol-5-yl)-4-fluoro-6-(pyridin-4-yl)-1H-benzo[d]imidazole]",0.0005 to 0.1
26,"Cc1nc2cccnc2n1-c1ccc(CN2CCOCC2)cc1 [Compound 177, 4-(4-(2-methyl-3H-imidazo[4,5-b]pyridin-3-yl)benzyl)morpholine]",0.501 to 10

# The next lines start with the values.
row,Kd [µM],SMILES
1,0.0005 to 0.1,"Cc1nc2ccc(-c3ccnc(N)c3)nc2n1-c1ccc2[nH]cnc2c1 [Compound 49, 4-(3-(1H-benzo[d]imidazol-5-yl)-2-methyl-3H-imidazo[4,5-b]pyridin-5-yl)pyridin-2-amine]"
2,0.0005 to 0.1,"Cc1nc2ccc(-c3ccnc(N)c3)nc2n1-c1ccc(N2CCC3(COC3)C2)c(F)c1 [Compound 169, 4-(3-(3-fluoro-4-(2-oxa-6-azaspiro[3.4]octan-6-yl)phenyl)-2-methyl-3H-imidazo[4,5-b]pyridin-5-yl)pyridin-2-amine]"
3,0.0005 to 0.1,"Cc1cc(-n2c(C)nc3ccc(-c4ccnc(N)c4)nc32)cnc1N1CCOCC1 [Compound 162, 4-(2-methyl-3-(5-methyl-6-morpholinopyridin-3-yl)-3H-imidazo[4,5-b]pyridin-5-yl)pyridin-2-amine]"
4,0.0005 to 0.1,"Cc1nc2ccc(-c3ccnc(N)c3)nc2n1-c1ccc(N2CCOC[C@@H]2C)c(F)c1 [Compound 171, (S)-4-(3-(3-fluoro-4-(3-methylmorpholino)phenyl)-2-methyl-3H-imidazo[4,5-b]pyridin-5-yl)pyridin-2-amine]"
5,0.0005 to 0.1,"Cc1nc2ccc(-c3cnn(C4CC4)c3)nc2n1-c1ccc(N2CCOCC2)c(F)c1 [Compound 147, 4-(4-(5-(1-cyclopropyl-1H-pyrazol-4-yl)-2-methyl-3H-imidazo[4,5-b]pyridin-3-yl)-2-fluorophenyl)morpholine]"
6,0.0005 to 0.1,"Cc1nc2ccc(-c3ccnc(N)c3)nc2n1-c1ccc(N2CCOCC2)cc1 [Compound 148, 4-(2-methyl-3-(4-morpholinophenyl)-3H-imidazo[4,5-b]pyridin-5-yl)pyridin-2-amine]"
7,0.101 to 0.5,"Nc1cc(-c2ccn3ncc(-c4ccc(CN5CCOCC5)s4)c3n2)ccn1 [Compound 114, 4-(3-(5-(morpholinomethyl)thiophen-2-yl)pyrazolo[1,5-a]pyrimidin-5-yl)pyridin-2-amine]"
8,0.0005 to 0.1,"Cc1nc2ccc(-c3ccncc3)nc2n1-c1ccc(N2CCN(C)CC2)c(F)c1 [Compound 135, 3-(3-fluoro-4-(4-methylpiperazin-1-yl)phenyl)-2-methyl-5-(pyridin-4-yl)-3H-imidazo[4,5-b]pyridine]"
9,0.101 to 0.5,"Cc1nc2ccc(-c3ccncc3)nc2n1-c1ccc(N2CCOCC2)cc1 [Compound 134, 4-(4-(2-methyl-5-(pyridin-4-yl)-3H-imidazo[4,5-b]pyridin-3-yl)phenyl)morpholine]"
10,0.0005 to 0.1,"Cc1nc2ccc(-c3ccnc(N)c3)nc2n1-c1ccc(N2C[C@H](C)O[C@@H](C)C2)c(F)c1 [Compound 183, 4-(3-(4-((2S,6S)-2,6-dimethylmorpholino)-3-fluorophenyl)-2-methyl-3H-imidazo[4,5-b]pyridin-5-yl)pyridin-2-amine]"
11,0.0005 to 0.1,"Cc1nc2ccc(-c3ccnc(N)c3)nc2n1-c1cccc(N2CCOCC2)c1 [Compound 157, 4-(2-methyl-3-(3-morpholinophenyl)-3H-imidazo[4,5-b]pyridin-5-yl)pyridin-2-amine]"
12,0.0005 to 0.1,"Cc1nc2ccc(-c3ccncc3)nc2n1-c1cnc2[nH]ccc2c1 [Compound 137, 2-methyl-5-(pyridin-4-yl)-3-(1H-pyrrolo[2,3-b]pyridin-5-yl)-3H-imidazo[4,5-b]pyridine]"
13,0.0005 to 0.1,"Cc1nc2ccc(-c3ccnc(N)c3)nc2n1-c1ccc(N2CCOCC2)c(F)c1 [Compound 144, 4-(3-(3-fluoro-4-morpholinophenyl)-2-methyl-3H-imidazo[4,5-b]pyridin-5-yl)pyridin-2-amine]"
14,0.0005 to 0.1,"Cc1nc2ccc(-c3ccncc3)nc2n1-c1ccc2[nH]cnc2c1 [Compound 32, 3-(1H-benzo[d]imidazol-5-yl)-2-methyl-5-(pyridin-4-yl)-3H-imidazo[4,5-b]pyridine]"
15,0.0005 to 0.1,"Cc1nc2ccc(-c3ccncc3)nc2n1-c1ccc(CN2CCOCC2)cc1 [Compound 28, 4-(4-(2-methyl-5-(pyridin-4-yl)-3H-imidazo[4,5-b]pyridin-3-yl)benzyl)morpholine]"
16,0.101 to 0.5,"Cc1nc2cnc(-c3ccnc(N)c3)cc2n1-c1cccc(CN2CCOCC2)c1 [Compound 180, 4-(2-methyl-1-(3-(morpholinomethyl)phenyl)-1H-imidazo[4,5-c]pyridin-6-yl)pyridin-2-amine]"
